Measured values reported in patent US11231421B2, “Methods of treating multifocal cancer” (NYMOX CORPORATION, priority 2019, dated 2022).
Where no end group is shown, it is not given here.

Experiments:
Assay type in all cases: in vivo, human
[1] = system: low grade prostate cancer (Gleason grade 6); experiment: Clinical study, Example 2: new multifocal with increase Gleason primary pattern in entire prostate; conditions: for % Imp.: new multifocal with increase Gleason primary pattern, entire prostate: vs control active surveillance
Protocol: (§1) In a series of clinical studies a total of 146 men with low grade prostate cancer (Gleason grade 6) were treated in the following manner. Patients were randomized and treated with a transrectal intraprostatic single injection of a composition comprising 2.5 mg FT (n=49), or a composition comprising 15 mg FT (n=48), or were subject to control active surveillance (n=49). After the first follow-up biopsy at 45 days post-randomization, 18 patients in the control active surveillance group crossed over to a single administration of a composition in which 10 patients received 2.5 mg FT, and 8 patients received 15 mg FT. Patients were followed for 5 years including biopsies at baseline, 45 days, 18, 36, and 48 months, and urological evaluations with PSA every 6 months. Patients with Gleason grade increase or who elected surgical or radiotherapeutic intervention exited the study and were still included in the data analysis. Percentage of normal biopsies in the baseline focus quadrant and median tumor grade and volume were assessed; progression was measured by clinical and pathological outcomes including Gleason grade, and Gleason grade primary pattern, in the entire prostate sampled as well as for the treated prostate lobe. Interventions associated with Gleason grade increase as well as total incidence for any conventional surgical intervention (e.g., surgery, radiotherapy, and/or chemotherapy) was assessed.

[2] = system: low grade prostate cancer (Gleason grade 6); experiment: Clinical study, Example 5: cancer treatment with new multifocal with Gleason upgrade; conditions: for % Imp.: cancer treatment with new multifocal with Gleason upgrade, entire prostate: vs control active surveillance
Protocol: as §1

[3] = system: low grade prostate cancer (Gleason grade 6); experiment: Clinical study, Example 1: new multifocal with Gleason upgrade in entire prostate; conditions: for % Imp.: new multifocal with Gleason upgrade, entire prostate: vs control active surveillance
Protocol: as §1

[4] = system: low grade prostate cancer (Gleason grade 6); experiment: Clinical study, Example 7: cancer treatment with new multifocal with increased Gleason grade in the hemi-prostate; conditions: for % Imp.: cancer treatment with new multifocal with increased Gleason grade in the hemi-prostate: vs control active surveillance
Protocol: as §1, with “assessed. This example evaluated the percentage of patients who had conventional cancer treatment (e.g., surgery, radiotherapy, and/or chemotherapy), and who and who had multifocal prostate cancer in the lobe (or hemi-prostate) in which the foci were initially treated with Gleason upgrade (cancer treatment with new multifocal with increased Gleason grade in the hemi-prostate).” for “assessed.”

[5] = FT 2.5 mg, <=18 mos from treatment
[6] = FT 2.5 mg, <=36 mos from treatment
[7] = FT 2.5 mg, <=48 mos from treatment
[8] = FT 15 mg, <=18 mos from treatment
[9] = FT 15 mg, <=36 mos from treatment
[10] = FT 15 mg, <=48 mos from treatment
[11] = Pooled FT (2.5 mg and 15 mg), <=18 mos from treatment
[12] = Pooled FT (2.5 mg and 15 mg), <=18 mos
[13] = Pooled FT (2.5 mg and 15 mg), <=36 mos from treatment
[14] = Pooled FT (2.5 mg and 15 mg), <=36 mos
[15] = Pooled FT (2.5 mg and 15 mg), <=48 mos from treatment
[16] = Pooled FT (2.5 mg and 15 mg), <=48 mos

fexapotide triflutate (IDQQVLSRIKLEIKRCL; also: trifluoroacetate salt) [FT]
percentage of patients: new multifocal with increase Gleason primary pattern, entire prostate [1, 5]: 0 (p = 0.17) % | % Imp.: new multifocal with increase Gleason primary pattern, entire prostate ([1]; FT 2.5 mg, <=18 mos): 100% | percentage of patients: new multifocal with increase Gleason primary pattern, entire prostate [1, 6]: 0 (p = 0.074) % | % Imp.: new multifocal with increase Gleason primary pattern, entire prostate ([1]; FT 2.5 mg, <=36 mos): 100% | percentage of patients: new multifocal with increase Gleason primary pattern, entire prostate [1, 7]: 0 (p = 0.009) % | % Imp.: new multifocal with increase Gleason primary pattern, entire prostate ([1]; FT 2.5 mg, <=48 mos): 100% | percentage of patients: new multifocal with increase Gleason primary pattern, entire prostate [1, 8]: 2.9% | % Imp.: new multifocal with increase Gleason primary pattern, entire prostate ([1]; FT 15 mg, <=18 mos): 82.6% | percentage of patients: new multifocal with increase Gleason primary pattern, entire prostate [1, 9]: 4.5% | % Imp.: new multifocal with increase Gleason primary pattern, entire prostate ([1]; FT 15 mg, <=36 mos): 82% | percentage of patients: new multifocal with increase Gleason primary pattern, entire prostate [1, 10]: 13.3% | % Imp.: new multifocal with increase Gleason primary pattern, entire prostate ([1]; FT 15 mg, <=48 mos): 62.7% | percentage of patients: new multifocal with increase Gleason primary pattern, entire prostate [1, 11]: 1.4 (p = 0.049) % | % Imp.: new multifocal with increase Gleason primary pattern, entire prostate [1, 12]: 91.6% | percentage of patients: new multifocal with increase Gleason primary pattern, entire prostate [1, 13]: 2.1 (p = 0.0031) % | % Imp.: new multifocal with increase Gleason primary pattern, entire prostate [1, 14]: 91.6% | percentage of patients: new multifocal with increase Gleason primary pattern, entire prostate [1, 15]: 6.5 (p = 0.012) % | % Imp.: new multifocal with increase Gleason primary pattern, entire prostate [1, 16]: 81.8% | percentage of patients: cancer treatment with new multifocal with Gleason upgrade, entire prostate [2, 5]: 9.8% | % Imp.: cancer treatment with new multifocal with Gleason upgrade, entire prostate ([2]; FT 2.5 mg, <=18 mos): 62.7% | percentage of patients: cancer treatment with new multifocal with Gleason upgrade, entire prostate [2, 6]: 16.7% | % Imp.: cancer treatment with new multifocal with Gleason upgrade, entire prostate ([2]; FT 2.5 mg, <=36 mos): 52.7% | percentage of patients: cancer treatment with new multifocal with Gleason upgrade, entire prostate [2, 7]: 26% | % Imp.: cancer treatment with new multifocal with Gleason upgrade, entire prostate ([2]; FT 2.5 mg, <=48 mos): 48% | percentage of patients: cancer treatment with new multifocal with Gleason upgrade, entire prostate [2, 8]: 5.1 (p = 0.02) % | % Imp.: cancer treatment with new multifocal with Gleason upgrade, entire prostate ([2]; FT 15 mg, <=18 mos): 80.6% | percentage of patients: cancer treatment with new multifocal with Gleason upgrade, entire prostate [2, 9]: 7.1 (p = 0.17) % | % Imp.: cancer treatment with new multifocal with Gleason upgrade, entire prostate ([2]; FT 15 mg, <=36 mos): 79.9% | percentage of patients: cancer treatment with new multifocal with Gleason upgrade, entire prostate [2, 10]: 8.3 (p = 0.003) % | % Imp.: cancer treatment with new multifocal with Gleason upgrade, entire prostate ([2]; FT 15 mg, <=48 mos): 83.4% | percentage of patients: cancer treatment with new multifocal with Gleason upgrade, entire prostate [2, 11]: 7.5 (p = 0.02) % | % Imp.: cancer treatment with new multifocal with Gleason upgrade, entire prostate [2, 12]: 71.5% | percentage of patients: cancer treatment with new multifocal with Gleason upgrade, entire prostate [2, 13]: 12.1 (p = 0.026) % | % Imp.: cancer treatment with new multifocal with Gleason upgrade, entire prostate [2, 14]: 65.7% | percentage of patients: cancer treatment with new multifocal with Gleason upgrade, entire prostate [2, 15]: 17 (p = 0.009) % | % Imp.: cancer treatment with new multifocal with Gleason upgrade, entire prostate [2, 16]: 66% | percentage of patients: new multifocal with Gleason upgrade, entire prostate [3, 5]: 13.5% | % Imp.: new multifocal with Gleason upgrade, entire prostate ([3]; FT 2.5 mg, <=18 mos): 51.4% | percentage of patients: new multifocal with Gleason upgrade, entire prostate [3, 6]: 23.1% | % Imp.: new multifocal with Gleason upgrade, entire prostate ([3]; FT 2.5 mg, <=36 mos): 47.2% | percentage of patients: new multifocal with Gleason upgrade, entire prostate [3, 7]: 50% | % Imp.: new multifocal with Gleason upgrade, entire prostate ([3]; FT 2.5 mg, <=48 mos): 12.4% | percentage of patients: new multifocal with Gleason upgrade, entire prostate [3, 8]: 5.7 (p = 0.025) % | % Imp.: new multifocal with Gleason upgrade, entire prostate ([3]; FT 15 mg, <=18 mos): 79.5% | percentage of patients: new multifocal with Gleason upgrade, entire prostate [3, 9]: 9.1 (p = 0.13) % | % Imp.: new multifocal with Gleason upgrade, entire prostate ([3]; FT 15 mg, <=36 mos): 79.2% | percentage of patients: new multifocal with Gleason upgrade, entire prostate [3, 10]: 20 (p = 0.039) % | % Imp.: new multifocal with Gleason upgrade, entire prostate ([3]; FT 15 mg, <=48 mos): 65% | percentage of patients: new multifocal with Gleason upgrade, entire prostate [3, 11]: 9.7 (p = 0.044) % | % Imp.: new multifocal with Gleason upgrade, entire prostate [3, 12]: 65.1% | percentage of patients: new multifocal with Gleason upgrade, entire prostate [3, 13]: 16.7 (P = 0.027) % | % Imp.: new multifocal with Gleason upgrade, entire prostate [3, 14]: 61.9% | percentage of patients: new multifocal with Gleason upgrade, entire prostate [3, 15]: 35.5% | % Imp.: new multifocal with Gleason upgrade, entire prostate [3, 16]: 37.8% | percentage of patients: cancer treatment with new multifocal with increased Gleason grade in the hemi-prostate [4, 5]: 4.9% | % Imp.: cancer treatment with new multifocal with increased Gleason grade in the hemi-prostate ([4]; FT 2.5 mg, <=18 mos): 69% | percentage of patients: cancer treatment with new multifocal with increased Gleason grade in the hemi-prostate [4, 6]: 10% | % Imp.: cancer treatment with new multifocal with increased Gleason grade in the hemi-prostate ([4]; FT 2.5 mg, <=36 mos): 57.4% | percentage of patients: cancer treatment with new multifocal with increased Gleason grade in the hemi-prostate [4, 7]: 17.4% | % Imp.: cancer treatment with new multifocal with increased Gleason grade in the hemi-prostate ([4]; FT 2.5 mg, <=48 mos): 44.4% | percentage of patients: cancer treatment with new multifocal with increased Gleason grade in the hemi-prostate [4, 8]: 5.1% | % Imp.: cancer treatment with new multifocal with increased Gleason grade in the hemi-prostate ([4]; FT 15 mg, <=18 mos): 67.7% | percentage of patients: cancer treatment with new multifocal with increased Gleason grade in the hemi-prostate [4, 9]: 7.1% | % Imp.: cancer treatment with new multifocal with increased Gleason grade in the hemi-prostate ([4]; FT 15 mg, <=36 mos): 69.8% | percentage of patients: cancer treatment with new multifocal with increased Gleason grade in the hemi-prostate [4, 10]: 8.3% | % Imp.: cancer treatment with new multifocal with increased Gleason grade in the hemi-prostate ([4]; FT 15 mg, <=48 mos): 73.5% | percentage of patients: cancer treatment with new multifocal with increased Gleason grade in the hemi-prostate [4, 11]: 5% | % Imp.: cancer treatment with new multifocal with increased Gleason grade in the hemi-prostate [4, 12]: 68.4% | percentage of patients: cancer treatment with new multifocal with increased Gleason grade in the hemi-prostate [4, 13]: 8.6% | % Imp.: cancer treatment with new multifocal with increased Gleason grade in the hemi-prostate [4, 14]: 63.4% | percentage of patients: cancer treatment with new multifocal with increased Gleason grade in the hemi-prostate [4, 15]: 12.8% | % Imp.: cancer treatment with new multifocal with increased Gleason grade in the hemi-prostate [4, 16]: 59.1%
